Test system: MV-4-11 cells
Assay: Gene expression microarray analysis (Affymetrix PrimeView) and GSEA
Type: cell-based, human
Set-up: RFU PODN (11730768_x_at) / Fold change /veh PODN (11730768_x_at) / RFU LINC00158 (11744669_a_at) / Fold change /veh LINC00158 (11744669_a_at) / RFU DUSP10 (11751237_a_at) / Fold change /veh DUSP10 (11751237_a_at) / RFU ID3 (11757404_x_at) / Fold change /veh ID3 (11757404_x_at) / RFU PLEKHG5 (11737974_s_at) / Fold change /veh PLEKHG5 (11737974_s_at) / RFU LRRC4B (11730491_at) / Fold change /veh LRRC4B (11730491_at) / RFU GIMAP4 (11747438_a_at) / Fold change /veh GIMAP4 (11747438_a_at) / RFU KRT8 (11758183_x_at) / Fold change /veh KRT8 (11758183_x_at) / RFU CNN1 (11734310_a_at) / Fold change /veh CNN1 (11734310_a_at) / RFU VPS37D (11726825_at) / Fold change /veh VPS37D (11726825_at) / RFU C10orf10 (11716522_x_at) / Fold change /veh C10orf10 (11716522_x_at) / RFU KIR2DL2 /// KIR2DL4 /// KIR2DL5A /// KIR2DL5B /// KIR2DS1 /// KIR2DS2 /// KIR2DS3 /// KIR2DS4 /// KIR3DL3 /// KIR3DL3 /// KIR3DS1 (11738374_at) / Fold change /veh KIR2DL2 /// KIR2DL4 /// KIR2DL5A /// KIR2DL5B /// KIR2DS1 /// KIR2DS2 /// KIR2DS3 /// KIR2DS4 /// KIR3DL3 /// KIR3DL3 /// KIR3DS1 (11738374_at) / RFU C1QL1 (11718748_at) / Fold change /veh C1QL1 (11718748_at) / RFU TMPRSS4 (11747572_a_at) / Fold change /veh TMPRSS4 (11747572_a_at) / RFU HAMP (11756126_x_at) / Fold change /veh HAMP (11756126_x_at) / RFU RNFT2 (11725882_a_at) / Fold change /veh RNFT2 (11725882_a_at) / RFU NR4A2 (11747474_a_at) / Fold change /veh NR4A2 (11747474_a_at) / RFU ABCC12 (11746883_a_at) / Fold change /veh ABCC12 (11746883_a_at) / RFU TMEM136 (11760407_x_at) / Fold change /veh TMEM136 (11760407_x_at) / RFU CLDN22 /// WWC2 (11732394_at) / Fold change /veh CLDN22 /// WWC2 (11732394_at) / RFU HLA-DPB1 (11760878_x_at) / Fold change /veh HLA-DPB1 (11760878_x_at) / RFU SPINT1 (11716480_a_at) / Fold change /veh SPINT1 (11716480_a_at) / RFU GAP43 (11754022_s_at) / Fold change /veh GAP43 (11754022_s_at) / RFU A4GNT (11735810_at) / Fold change /veh A4GNT (11735810_at) / RFU PRB3 (11715151_x_at) / Fold change /veh PRB3 (11715151_x_at) / RFU TUBB4B (11761932_at) / Fold change /veh TUBB4B (11761932_at) / RFU CAPN14 (11732068_a_at) / Fold change /veh CAPN14 (11732068_a_at) / RFU TMCC2 (11721928_a_at) / Fold change /veh TMCC2 (11721928_a_at) / RFU IRGQ (11745062_a_at) / Fold change /veh IRGQ (11745062_a_at) / RFU FAM174B (11720279_a_at) / Fold change /veh FAM174B (11720279_a_at) / RFU TMPRSS4 (11748680_a_at) / Fold change /veh TMPRSS4 (11748680_a_at) / RFU FAM212B (11763350_a_at) / Fold change /veh FAM212B (11763350_a_at) / RFU PLEKHG5 (11743358_a_at) / Fold change /veh PLEKHG5 (11743358_a_at) / RFU ZSCAN30 (11745921_a_at) / Fold change /veh ZSCAN30 (11745921_a_at) / RFU CMKLR1 (11741424_a_at) / Fold change /veh CMKLR1 (11741424_a_at) / RFU LOC101060620 /// MAPK8IP1 (11723275_at) / Fold change /veh LOC101060620 /// MAPK8IP1 (11723275_at) / RFU SPTSSB (11747773_x_at) / Fold change /veh SPTSSB (11747773_x_at) / RFU PRSS12 (11739890_at) / Fold change /veh PRSS12 (11739890_at) / RFU BIN1 (11741810_x_at) / Fold change /veh BIN1 (11741810_x_at) / RFU WNT11 (11732464_a_at) / Fold change /veh WNT11 (11732464_a_at) / RFU C10orf10 (11716521_a_at) / Fold change /veh C10orf10 (11716521_a_at) / RFU C5orf56 (11738089_at) / Fold change /veh C5orf56 (11738089_at) / RFU CYB561 (11721691_x_at) / Fold change /veh CYB561 (11721691_x_at) / RFU ANKRD19P (11752326_a_at) / Fold change /veh ANKRD19P (11752326_a_at) / RFU OR2T12 /// OR2T33 /// OR2T8 (11738714_s_at) / Fold change /veh OR2T12 /// OR2T33 /// OR2T8 (11738714_s_at) / RFU VCAN (11748164_a_at) / Fold change /veh VCAN (11748164_a_at) / RFU JSRP1 (11732532_at) / Fold change /veh JSRP1 (11732532_at) / RFU KRTAP10-11 (11738290_x_at) / Fold change /veh KRTAP10-11 (11738290_x_at) / RFU MYO3A (11730013_a_at) / Fold change /veh MYO3A (11730013_a_at) / RFU EBF3 (11725865_a_at) / Fold change /veh EBF3 (11725865_a_at) / RFU CAMK2N1 (11719241_x_at) / Fold change /veh CAMK2N1 (11719241_x_at) / RFU C5orf56 (11738088_a_at) / Fold change /veh C5orf56 (11738088_a_at) / RFU OLFML3 (11715873_a_at) / Fold change /veh OLFML3 (11715873_a_at) / RFU LOC100653217 /// NTM (11731650_a_at) / Fold change /veh LOC100653217 /// NTM (11731650_a_at) / RFU MAPK11 (11762145_a_at) / Fold change /veh MAPK11 (11762145_a_at) / RFU FIZ1 (11724087_x_at) / Fold change /veh FIZ1 (11724087_x_at) / RFU OASL (11726364_x_at) / Fold change /veh OASL (11726364_x_at) / RFU SOX15 (11748057_x_at) / Fold change /veh SOX15 (11748057_x_at) / RFU CD79A (11719716_a_at) / Fold change /veh CD79A (11719716_a_at) / RFU HIST1H1D (11736915_at) / Fold change /veh HIST1H1D (11736915_at) / RFU CASKIN2 (11723855_a_at) / Fold change /veh CASKIN2 (11723855_a_at) / RFU LOC730098 (11760151_x_at) / Fold change /veh LOC730098 (11760151_x_at) / RFU OR4N2 (11742367_at) / Fold change /veh OR4N2 (11742367_at) / RFU PRRT2 (11749266_a_at) / Fold change /veh PRRT2 (11749266_a_at) / RFU SNX32 (11753110_a_at) / Fold change /veh SNX32 (11753110_a_at) / RFU CDHR5 (11726645_a_at) / Fold change /veh CDHR5 (11726645_a_at) / RFU RCAN1 (11760418_a_at) / Fold change /veh RCAN1 (11760418_a_at) / RFU FAM167A (11723789_a_at) / Fold change /veh FAM167A (11723789_a_at) / RFU FAM26E (11764081_at) / Fold change /veh FAM26E (11764081_at) / RFU ISYNA1 (11749810_s_at) / Fold change /veh ISYNA1 (11749810_s_at) / RFU ACY1 (11761880_at) / Fold change /veh ACY1 (11761880_at) / RFU 11764098_at / Fold change /veh 11764098_at / RFU SAMD14 (11745864_x_at) / Fold change /veh SAMD14 (11745864_x_at) / RFU NPB (11741838_a_at) / Fold change /veh NPB (11741838_a_at) / RFU TMPRSS6 (11731388_a_at) / Fold change /veh TMPRSS6 (11731388_a_at) / RFU KRTAP10-2 (11738614_at) / Fold change /veh KRTAP10-2 (11738614_at) / RFU ARHGAP8 /// PRR5-ARHGAP8 (11727945_x_at) / Fold change /veh ARHGAP8 /// PRR5-ARHGAP8 (11727945_x_at) / RFU KRTAP5-7 /// NADSYN1 (11734609_at) / Fold change /veh KRTAP5-7 /// NADSYN1 (11734609_at) / RFU RASL12 (11751679_a_at) / Fold change /veh RASL12 (11751679_a_at) / RFU CDKN2B (11736163_a_at) / Fold change /veh CDKN2B (11736163_a_at) / RFU PRF1 (11729649_at) / Fold change /veh PRF1 (11729649_at) / RFU, ZNF638 /// ZNF638-IT1 / Fold change vs veh, ZNF638 /// ZNF638-IT1 / RFU, PANK3 / Fold change vs veh, PANK3 / RFU, SH3YL1 / Fold change vs veh, SH3YL1 / RFU, ZEB2 / Fold change vs veh, ZEB2 / RFU, NRIP1 / Fold change vs veh, NRIP1 / RFU, PTTG1IP / Fold change vs veh, PTTG1IP / RFU, CAPN2 / Fold change vs veh, CAPN2 / RFU, MED14 / Fold change vs veh, MED14 / RFU, SNORA58 / Fold change vs veh, SNORA58 / RFU, C1orf63 / Fold change vs veh, C1orf63 / RFU, LRRFIP1 / Fold change vs veh, LRRFIP1 / RFU, NDUFAF7 / Fold change vs veh, NDUFAF7 / RFU, SLC12A2 / Fold change vs veh, SLC12A2 / RFU, IBTK / Fold change vs veh, IBTK / RFU, ESF1 / Fold change vs veh, ESF1 / Fold change vs veh, TMEM50B / RFU, TAOK1 / Fold change vs veh, TAOK1 / RFU, ACBD3 / Fold change vs veh, ACBD3 / RFU, TMA16 / Fold change vs veh, TMA16 / RFU, RWDD3 / Fold change vs veh, RWDD3 / RFU, BCAT1 / Fold change vs veh, BCAT1 / RFU, EDEM3 / Fold change vs veh, EDEM3 / RFU, TMEM33 / Fold change vs veh, TMEM33 / RFU, WDR75 / Fold change vs veh, WDR75 / RFU, AHCTF1 / Fold change vs veh, AHCTF1 / RFU, TFRC / Fold change vs veh, TFRC / RFU, ZDHHC17 / Fold change vs veh, ZDHHC17 / RFU, NOM1 / Fold change vs veh, NOM1 / RFU, ARL8B / Fold change vs veh, ARL8B / RFU, ZBTB11 / Fold change vs veh, ZBTB11 / RFU, TAMM41 / Fold change vs veh, TAMM41 / RFU, KIAA1704 /// LOC100996395 / Fold change vs veh, KIAA1704 /// LOC100996395 / RFU, ING1 / Fold change vs veh, ING1 / RFU, TRMT61B / Fold change vs veh, TRMT61B / RFU, FUBP3 / Fold change vs veh, FUBP3 / RFU, TP53 / Fold change vs veh, TP53 / RFU, TNKS2 / Fold change vs veh, TNKS2 / RFU, ZFP14 / Fold change vs veh, ZFP14 / RFU, ACTR2 / Fold change vs veh, ACTR2 / RFU, PPP3R1 / Fold change vs veh, PPP3R1 / RFU, PIK3R1 / Fold change vs veh, PIK3R1 / RFU, HNRNPA1 / Fold change vs veh, HNRNPA1 / RFU, RNF170 / Fold change vs veh, RNF170 / RFU, ZNF28 / Fold change vs veh, ZNF28 / RFU, RNGTT / Fold change vs veh, RNGTT / RFU, OGT / Fold change vs veh, OGT / RFU, BRD1 / Fold change vs veh, BRD1 / RFU, MARS / Fold change vs veh, MARS / RFU, ZNF655 / Fold change vs veh, ZNF655 / RFU, FAHD1 / Fold change vs veh, FAHD1 / RFU, BDP1 / Fold change vs veh, BDP1 / RFU, LRRCC1 / Fold change vs veh, LRRCC1 / RFU, ARID1A / Fold change vs veh, ARID1A / RFU, ZNF146 / Fold change vs veh, ZNF146 / RFU, ZNF330 / Fold change vs veh, ZNF330 / RFU, GPN3 / Fold change vs veh, GPN3 / RFU, C9orf123 / Fold change vs veh, C9orf123 / RFU, N4BP2L2 / Fold change vs veh, N4BP2L2 / RFU, ARFIP1 / Fold change vs veh, ARFIP1 / RFU, FAM179B / Fold change vs veh, FAM179B / RFU, BCL10 / Fold change vs veh, BCL10 / RFU, UHRF1BP1L / Fold change vs veh, UHRF1BP1L / RFU, BET1 / Fold change vs veh, BET1 / RFU, CNOT2 / Fold change vs veh, CNOT2 / RFU, ZNF268 / Fold change vs veh, ZNF268 / Fold change vs veh, ZNF507 / RFU, DGCR2 / Fold change vs veh, DGCR2 / RFU, WDSUB1 / Fold change vs veh, WDSUB1 / Fold change vs veh, HSP90B1 /// MIR3652 / RFU, ADSS / Fold change vs veh, ADSS / RFU, GK / Fold change vs veh, GK / RFU, ZNF148 / Fold change vs veh, ZNF148 / RFU, TAF9 / Fold change vs veh, TAF9 / RFU, SLC1A5 / Fold change vs veh, SLC1A5 / RFU, SLMO2 / Fold change vs veh, SLMO2 / RFU, ABCC4 / Fold change vs veh, ABCC4 / RFU, LOC101060439 /// RAP1B / Fold change vs veh, LOC101060439 /// RAP1B / RFU, RFX7 / Fold change vs veh, RFX7 / RFU, GTPBP10 / Fold change vs veh, GTPBP10 / RFU, CNEP1R1 / Fold change vs veh, CNEP1R1 / RFU, BIVM-ERCC5 /// ERCC5 / Fold change vs veh, BIVM-ERCC5 /// ERCC5 / RFU, ILF3 / Fold change vs veh, ILF3 / RFU 11762660_at / Fold change /veh 11762660_at / RFU VCAN (11757783_s_at) / Fold change /veh VCAN (11757783_s_at) / RFU DDX43 (11728927_at) / Fold change /veh DDX43 (11728927_at) / RFU KRT8 (11758188_x_at) / Fold change /veh KRT8 (11758188_x_at) / RFU NKD1 (11759106_at) / Fold change /veh NKD1 (11759106_at) / RFU SRD5A1 (11742802_a_at) / Fold change /veh SRD5A1 (11742802_a_at) / RFU TPSAB1 /// TPSB2 (11721975_s_at) / Fold change /veh TPSAB1 /// TPSB2 (11721975_s_at) / RFU GSTM3 (11746129_a_at) / Fold change /veh GSTM3 (11746129_a_at) / RFU IL23R (11737362_x_at) / Fold change /veh IL23R (11737362_x_at) / RFU TMEM51 (11727254_a_at) / Fold change /veh TMEM51 (11727254_a_at) / RFU PIWIL2 (11732686_x_at) / Fold change /veh PIWIL2 (11732686_x_at) / RFU ORM1 (11744905_x_at) / Fold change /veh ORM1 (11744905_x_at) / RFU CCDC152 (11743942_at) / Fold change /veh CCDC152 (11743942_at) / RFU ECM1 (11717891_a_at) / Fold change /veh ECM1 (11717891_a_at) / RFU IL23R (11748794_a_at) / Fold change /veh IL23R (11748794_a_at) / RFU TNFAIP8L3 (11732012_x_at) / Fold change /veh TNFAIP8L3 (11732012_x_at) / RFU MBOAT4 (11741988_at) / Fold change /veh MBOAT4 (11741988_at) / RFU 11764193_at / Fold change /veh 11764193_at / RFU TMEM53 (11763286_at) / Fold change /veh TMEM53 (11763286_at) / RFU MAGEB2 (11727129_at) / Fold change /veh MAGEB2 (11727129_at) / RFU TMEM200A (11744735_a_at) / Fold change /veh TMEM200A (11744735_a_at) / RFU CCDC152 (11751479_a_at) / Fold change /veh CCDC152 (11751479_a_at) / RFU FAM211A (11726209_a_at) / Fold change /veh FAM211A (11726209_a_at) / RFU RGS16 (11746705_a_at) / Fold change /veh RGS16 (11746705_a_at) / RFU VCAN (11755009_s_at) / Fold change /veh VCAN (11755009_s_at) / RFU RHOB (11743442_s_at) / Fold change /veh RHOB (11743442_s_at) / RFU RGS16 (11720943_a_at) / Fold change /veh RGS16 (11720943_a_at) / RFU RGS16 (11720944_at) / Fold change /veh RGS16 (11720944_at) / RFU, VPS4B / Fold change vs veh, VPS4B / RFU, CREB1 / Fold change vs veh, CREB1 / RFU, DNAJC13 / Fold change vs veh, DNAJC13 / RFU, GNAQ / Fold change vs veh, GNAQ / RFU, CDK5R1 / Fold change vs veh, CDK5R1 / RFU, ZRANB3 / Fold change vs veh, ZRANB3 / RFU, CUL4A / Fold change vs veh, CUL4A / RFU, CCNY / Fold change vs veh, CCNY / RFU, UFL1 / Fold change vs veh, UFL1 / RFU, COG3 / Fold change vs veh, COG3 / RFU, DIAPH2 / Fold change vs veh, DIAPH2 / RFU, SKA2 / Fold change vs veh, SKA2 / RFU, AFF3 / Fold change vs veh, AFF3 / RFU, LMF1 / Fold change vs veh, LMF1 / RFU, IPO11 / Fold change vs veh, IPO11 / RFU, DFFB / Fold change vs veh, DFFB / RFU, FOXP1 / Fold change vs veh, FOXP1 / RFU, CARD8 / Fold change vs veh, CARD8 / RFU, STRN3 / Fold change vs veh, STRN3 / RFU, ADK / Fold change vs veh, ADK / RFU, RASSF2 / Fold change vs veh, RASSF2 / RFU, WIPF1 / Fold change vs veh, WIPF1 / RFU, LARP1B / Fold change vs veh, LARP1B / RFU, RASA1 / Fold change vs veh, RASA1 / RFU, RB1 / Fold change vs veh, RB1 / RFU, PPFIA1 / Fold change vs veh, PPFIA1 / RFU, MAT2A / Fold change vs veh, MAT2A / RFU, CCT5 / Fold change vs veh, CCT5 / RFU, WDR92 / Fold change vs veh, WDR92 / RFU, CUX1 / Fold change vs veh, CUX1 / RFU, TTC7A / Fold change vs veh, TTC7A / RFU, TMEM135 / Fold change vs veh, TMEM135 / RFU, DEPTOR / Fold change vs veh, DEPTOR / RFU, CPM / Fold change vs veh, CPM / RFU, DNAJB6 / Fold change vs veh, DNAJB6 / RFU, CACNA2D3 / Fold change vs veh, CACNA2D3 / RFU, DTX4 / Fold change vs veh, DTX4 / RFU, TFCP2 / Fold change vs veh, TFCP2 / RFU, GMCL1 /// GMCL1P1 / Fold change vs veh, GMCL1 /// GMCL1P1 / RFU, AEBP2 / Fold change vs veh, AEBP2 / RFU, SNHG1 /// SNORD22 /// SNORD25 /// SNORD26 /// SNORD27 /// SNORD28 /// SNORD29 /// SNORD31 / Fold change vs veh, SNHG1 /// SNORD22 /// SNORD25 /// SNORD26 /// SNORD27 /// SNORD28 /// SNORD29 /// SNORD31 / Fold change (Aza/veh), C12orf56 (ProbeSet 11735607_a_at) / Fold change (ACY-1035/veh), C12orf56 (ProbeSet 11735607_a_at) / Fold change (Aza/veh), FGFR1OP (ProbeSet 11751329_s_at) / Fold change (ACY-1035/veh), FGFR1OP (ProbeSet 11751329_s_at) / Fold change (Aza/veh), VPS36 (ProbeSet 11739960_a_at) / Fold change (ACY-1035/veh), VPS36 (ProbeSet 11739960_a_at) / RFU SYPL1 (11715823_x_at) / Fold change /veh SYPL1 (11715823_x_at) / RFU IGFBP7 (11715501_s_at) / Fold change /veh IGFBP7 (11715501_s_at) / RFU REEP3 (11722064_at) / Fold change /veh REEP3 (11722064_at) / RFU IGLL1 (11728026_x_at) / Fold change /veh IGLL1 (11728026_x_at): dose or concentration left out as unconfirmed
Conditions: MV-4-11 cells, 48 hours

## Nc1ncn([C@@H]2O[C@H](CO)[C@@H](O)[C@H]2O)c(=O)n1 [azacitidine]
  RFU HAMP (11756126_x_at): 317.78 RFU
